# Laboratory results: PMC12406734, “B3GALT6 mutations lead to compromised connective tissue biomechanics in Ehlers-Danlos syndrome” (JCI Insight, 2025)
# Biological target: T1, GlcAT-I (GST-GlcAT-I) (Homo sapiens, UniProt O94766)
# T1 construct: gene B3GAT3; truncated GlcAT-I, GST fusion, E. coli, purified
# T1 sequence (O94766 29-335 limits assumed): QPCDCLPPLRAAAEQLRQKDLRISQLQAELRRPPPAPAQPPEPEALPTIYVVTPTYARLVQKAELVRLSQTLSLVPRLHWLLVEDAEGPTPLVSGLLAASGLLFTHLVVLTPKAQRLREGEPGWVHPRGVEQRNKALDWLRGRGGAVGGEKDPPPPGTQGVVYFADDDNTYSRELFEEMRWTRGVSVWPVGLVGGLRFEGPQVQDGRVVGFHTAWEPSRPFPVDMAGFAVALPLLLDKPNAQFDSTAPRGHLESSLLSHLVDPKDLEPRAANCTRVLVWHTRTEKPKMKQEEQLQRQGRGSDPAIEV
# Assay: UDP-Glo glycosyltransferase assay
# Format: biochemical
# Conditions: acceptor; 5 mM UDP-GlcA, 100 mM sodium acetate pH 6.5, 10 mM MnCl2, 37 °C, 60 min
smiles,measurement,value
COc1ccc2ccc(O[C@@H]3OC[C@@H](O[C@@H]4O[C@H](CO)[C@H](O)[C@H](O[C@@H]5O[C@H](CO)[C@H](O)[C@H](O)[C@H]5O)[C@H]4O)[C@H](O)[C@H]3O)cc2c1 [Gal-Gal-Xyl-OMN],UDP-Glo glycosyltransferase assay,GlcAT-I was highly active towards the trisaccharide Gal-Gal-Xyl-OMN
